According to PubChem BioAssay AID2060512 (Molecular Pharmacology Branch, DTP, NCI, 2025):

System: 186277-243-T-J2-PDC complex spheroid viability
Test: Anticancer human tumor 186277-243-T-J2-PDC patient-derived colon adenocarcinoma cell line growth inhibition [GQUAD]
Details: for IC50: curve of first compound; for viability, T/C: stronger effect = lower value; active = viability on the fitted dose curve at most 10% of control; inactive = the rest
In short: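 Viability of tumor cells grown as complex spheroids with endothelial and stromal cells, exposed to drug combinations. Top concentration at or near clinical Cmax (else 10 microM), diluted in half-log increments.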

[1] = second compound 0.0316 µM, first compound 0.0316 µM
[2] = second compound 0.0316 µM, first compound 0.1 µM
[3] = second compound 0.0316 µM, first compound 0.316 µM
[4] = second compound 0.0316 µM, first compound 1 µM
[5] = second compound 0.0316 µM, first compound 3.16 µM
[6] = second compound 0.0316 µM, first compound 10 µM
[7] = second compound 0.1 µM, first compound 0.0316 µM
[8] = second compound 0.1 µM, first compound 0.1 µM
[9] = second compound 0.1 µM, first compound 0.316 µM
[10] = second compound 0.1 µM, first compound 1 µM
[11] = second compound 0.1 µM, first compound 3.16 µM
[12] = second compound 0.1 µM, first compound 10 µM
[13] = second compound 0.316 µM, first compound 0.0316 µM
[14] = second compound 0.316 µM, first compound 0.1 µM
[15] = second compound 0.316 µM, first compound 0.316 µM
[16] = second compound 0.316 µM, first compound 1 µM
[17] = second compound 0.316 µM, first compound 3.16 µM
[18] = second compound 0.316 µM, first compound 10 µM
[19] = second compound 1 µM, first compound 0.0316 µM
[20] = second compound 1 µM, first compound 0.1 µM
[21] = second compound 1 µM, first compound 0.316 µM
[22] = second compound 1 µM, first compound 1 µM
[23] = second compound 1 µM, first compound 3.16 µM
[24] = second compound 1 µM, first compound 10 µM
[25] = second compound 3.16 µM, first compound 0.0316 µM
[26] = second compound 3.16 µM, first compound 0.1 µM
[27] = second compound 3.16 µM, first compound 0.316 µM
[28] = second compound 3.16 µM, first compound 1 µM
[29] = second compound 3.16 µM, first compound 3.16 µM
[30] = second compound 3.16 µM, first compound 10 µM
[31] = second compound 10 µM, first compound 0.0316 µM
[32] = second compound 10 µM, first compound 0.1 µM
[33] = second compound 10 µM, first compound 0.316 µM
[34] = second compound 10 µM, first compound 1 µM
[35] = second compound 10 µM, first compound 3.16 µM
[36] = second compound 10 µM, first compound 10 µM
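For viability, T/C in this document: 100% = DMSO vehicle control viability.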

CCCS(=O)(=O)Nc1ccc(F)c(C(=O)c2c[nH]c3ncc(-c4ccc(Cl)cc4)cc23)c1F + Cc1cnc(CNC(=O)c2c(=O)c3ccc(N4CCCN(C)CC4)nc3n3c2sc2ccccc23)cn1
inactive: viability, T/C [1] 113% | viability, T/C [2] 102% | viability, T/C [3] 116% | viability, T/C [4] 95.4% | viability, T/C [5] 88.3% | viability, T/C [6] 23.4% | viability, T/C [7] 79.3% | viability, T/C [8] 72.4% | viability, T/C [9] 93.1% | viability, T/C [10] 74.1% | viability, T/C [11] 72.3% | viability, T/C [12] 14.5% | viability, T/C [13] 63.6% | viability, T/C [14] 62.3% | viability, T/C [15] 68.5% | viability, T/C [16] 59% | viability, T/C [17] 65.7% | viability, T/C [18] 16.1% | viability, T/C [19] 47.7% | viability, T/C [20] 47% | viability, T/C [21] 54.8% | viability, T/C [22] 49.3% | viability, T/C [23] 47.5% | viability, T/C [24] 15.8% | viability, T/C [25] 31.3% | viability, T/C [26] 43.9% | viability, T/C [27] 48.8% | viability, T/C [28] 41% | viability, T/C [29] 38.3% | viability, T/C [30] 9.83% | viability, T/C [31] 47.6% | viability, T/C [32] 36.8% | viability, T/C [33] 37.3% | viability, T/C [34] 40.4% | viability, T/C [35] 37.8% | viability, T/C [36] 0.36%
< 31.6 nM: IC50 (second compound 1 µM) | IC50 (second compound 3.16 µM) | IC50 (second compound 10 µM)
4410 nM: IC50 (second compound 0.316 µM)
4930 nM: IC50 (second compound 0.1 µM)
6120 nM: IC50 (second compound 0.0316 µM)

COc1cccc2c1C(=O)c1c(O)c3c(c(O)c1C2=O)CC(O)(C(=O)CO)CC3OC1CC(N)C(O)C(C)O1 (stereo unspecified) + Cc1cnc(CNC(=O)c2c(=O)c3ccc(N4CCCN(C)CC4)nc3n3c2sc2ccccc23)cn1
inactive: viability, T/C [1] 113% | viability, T/C [2] 84.8% | viability, T/C [3] 65.2% | viability, T/C [4] 24.3% | viability, T/C [7] 86.5% | viability, T/C [8] 78.3% | viability, T/C [9] 77% | viability, T/C [10] 32.6% | viability, T/C [13] 59.4% | viability, T/C [14] 56.3% | viability, T/C [15] 52.3% | viability, T/C [16] 23.8% | viability, T/C [19] 45.9% | viability, T/C [20] 37.5% | viability, T/C [21] 46.5% | viability, T/C [22] 19.9% | viability, T/C [25] 43.5% | viability, T/C [26] 54.4% | viability, T/C [27] 31.4% | viability, T/C [28] 13.3% | viability, T/C [31] 39.9% | viability, T/C [32] 41.3% | viability, T/C [33] 41.8% | viability, T/C [34] 15.9%
634 nM: IC50 (second compound 0.1 µM)
433 nM: IC50 (second compound 0.0316 µM)
active: viability, T/C [5] 1.89% | viability, T/C [6] 0.15% | viability, T/C [11] 1.48% | viability, T/C [12] 0.63% | viability, T/C [17] 0.99% | viability, T/C [18] 0.15% | viability, T/C [23] 0.12% | viability, T/C [24] 1.33% | viability, T/C [29] 2.48% | viability, T/C [30] 0.22% | viability, T/C [35] 0.24% | viability, T/C [36] 0.26%
350 nM: IC50 (second compound 0.316 µM)
< 31.6 nM: IC50 (second compound 1 µM) | IC50 (second compound 3.16 µM) | IC50 (second compound 10 µM)

Nc1ccn(C2OC(CO)C(O)C2(F)F)c(=O)n1 (stereo unspecified) + Cc1cnc(CNC(=O)c2c(=O)c3ccc(N4CCCN(C)CC4)nc3n3c2sc2ccccc23)cn1
inactive: viability, T/C [1] 21.2% | viability, T/C [2] 13.3% | viability, T/C [3] 12.3% | viability, T/C [4] 11.9% | viability, T/C [5] 12.2% | viability, T/C [6] 12.8% | viability, T/C [7] 27.1% | viability, T/C [8] 17.6% | viability, T/C [9] 15.3% | viability, T/C [10] 12.9% | viability, T/C [11] 15.4% | viability, T/C [12] 15.9% | viability, T/C [13] 36% | viability, T/C [14] 28.4% | viability, T/C [15] 21.5% | viability, T/C [16] 16.8% | viability, T/C [17] 18.6% | viability, T/C [18] 16% | viability, T/C [19] 32.6% | viability, T/C [20] 30.2% | viability, T/C [21] 22.8% | viability, T/C [22] 21.4% | viability, T/C [23] 19.9% | viability, T/C [24] 17.7% | viability, T/C [25] 33.1% | viability, T/C [26] 24.8% | viability, T/C [27] 22.6% | viability, T/C [28] 19.5% | viability, T/C [29] 19.3% | viability, T/C [30] 16.5% | viability, T/C [31] 34.3% | viability, T/C [32] 25.1% | viability, T/C [33] 25.4% | viability, T/C [34] 18.7% | viability, T/C [35] 21.4% | viability, T/C [36] 19.2%
< 31.6 nM: IC50 (second compound 0.0316 µM) | IC50 (second compound 0.1 µM) | IC50 (second compound 0.316 µM) | IC50 (second compound 1 µM) | IC50 (second compound 3.16 µM) | IC50 (second compound 10 µM)
